Laboratory results published in the supplement of paper PMC11061612.

Experiments:
[1] = system: TT (Thyroid Gland Carcinoma); assay: combination Emax (second highest fraction inhibited in the dose matrix, 72 h); higher = more inhibition; extreme values may be limits of the assay
In short: (§1)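 Bliss excess equals the observed combination effect minus the expected value EA + EB − EA·EB, where EA and EB are the effects of each agent alone. Combination Emax is the second-highest inhibition within the matrix. Inhibition was scaled from CellTiter-Glo 2.0 luminescence, with 0 set by vehicle wells and 1 by blank wells, after 72 hours of two-drug dosing of cells plated in 1536-well plates.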

[2] = system: KARPAS-422 (B-Cell Non-Hodgkin's Lymphoma); assay: as above
In short: as §1

[3] = system: VCaP (Prostate Carcinoma); assay: as above
In short: as §1

[4] = system: NCI-H1693 (Lung Adenocarcinoma); assay: as above
In short: as §1

[5] = system: SISO (Cervical Carcinoma); assay: as above
In short: as §1

[6] = system: NCI-H1581 (Non-Small Cell Lung Carcinoma); assay: as above
In short: as §1

[7] = system: CAL-29 (Bladder Carcinoma); assay: as above
In short: as §1

PA-1 (Ovarian Carcinoma) = assay: as above
In short: as §1

[8] = system: CCK-81 (Colorectal Carcinoma); assay: as above
In short: as §1

[9] = system: COR-L311 (Small Cell Lung Carcinoma); assay: as above
In short: as §1

FU97 (Gastric Carcinoma) = assay: as above
In short: as §1

[10] = system: MDST8 (Colorectal Carcinoma); assay: as above
In short: as §1

IGR-37 (Melanoma) = assay: as above
In short: as §1

[11] = system: COLO-824 (Breast Carcinoma); assay: as above
In short: as §1

[12] = system: COLO-320-HSR (Colorectal Carcinoma); assay: as above
In short: as §1

LN-405 (Glioblastoma) = assay: as above
In short: as §1

[13] = system: NCI-H2066 (Squamous Cell Lung Carcinoma); assay: as above
In short: as §1

[14] = system: PANC-10-05 (Pancreatic Carcinoma); assay: Bliss excess, mean over the matrix (fraction); higher = more synergy
In short: as §1

[15] = system: OS-RC-2 (Kidney Carcinoma); assay: as above
In short: as §1

[16] = system: NCI-H2141 (Small Cell Lung Carcinoma); assay: as above
In short: as §1

| SMILES | combination Emax [1] | combination Emax [2] | combination Emax [3] | combination Emax [4] | combination Emax [5] | combination Emax [6] | combination Emax [7] | combination Emax (PA-1 (Ovarian Carcinoma)) | combination Emax [8] | combination Emax [9] | combination Emax (FU97 (Gastric Carcinoma)) | combination Emax [10] | combination Emax (IGR-37 (Melanoma)) | combination Emax [11] | combination Emax [12] | combination Emax (LN-405 (Glioblastoma)) | combination Emax [13] | Bliss excess [14] | Bliss excess [15] | Bliss excess [16] |
| --- | --- | --- | --- | --- | --- | --- | --- | --- | --- | --- | --- | --- | --- | --- | --- | --- | --- | --- | --- | --- |
| Cc1c2c(nn1C)CSCc1cc(n(C)n1)CSc1cc(c3ccccc3c1)OCCCc1c(C(=O)O)n(C)c3c-2c(Cl)ccc13 [AZD5991] + CN(C)CCCOc1ccc(-c2ccc3ncc4c(c3c2)n(C2CCOCC2)c(=O)n4C)cn1 [AZD0156] (first compound max 1 µM, 7x7, partner max 1 µM) | 0.297 | 0.982 | 0.913 | 0.211 | 0.201 | 0.976 | 0.545 | 0.855 | 0.88 | 0.433 | 0.318 | 0.242 | 0.282 | 0.411 | 0.888 | 0.376 | 0.234 | -0.0048 | -0.0096 | -0.0146 |
| CCc1c2c(nc3ccc(O)cc13)-c1cc3c(c(=O)n1C2)COC(=O)[C@]3(O)CC [SN-38] + O=C(c1cc(Cc2n[nH]c(=O)c3ccccc23)ccc1F)N1CCN(C(=O)C2CC2)CC1 [Olaparib] (first compound max 0.3 µM, 7x7, partner max 10 µM) | 0.892 | 0.957 | 0.459 | – | 0.932 | 0.722 | – | 0.848 | 0.587 | – | 0.277 | 0.745 | 0.863 | – | 0.261 | 0.413 | 0.0964 | 0.0059 | – | 0.0521 |
| CN(CCO)CC[C@H](CSc1ccccc1)Nc1ccc(S(=O)(=O)NC(=O)c2ccc(N3CCC([C@@H](O)c4ccccc4-c4ccc(Cl)cc4)CC3)cc2)cc1S(=O)(=O)C(F)(F)F [AZD4320] + CN(C)CCCOc1ccc(-c2ccc3ncc4c(c3c2)n(C2CCOCC2)c(=O)n4C)cn1 [AZD0156] (first compound max 1 µM, 7x7, partner max 1 µM) | 0.269 | 0.957 | 0.19 | 0.19 | 0.0433 | 0.19 | 0.104 | 0.497 | – | 1 | 0.258 | 0.772 | 0.116 | 1 | 0.01 | 0.275 | 0.619 | -0.0489 | -0.0706 | -0.0151 |
| CC(=O)c1c(C)c2cnc(Nc3ccc(N4CCNCC4)cn3)nc2n(C2CCCC2)c1=O [Palbociclib] + CN(CC[C@H](CSC1=CC=CC=C1)NC2=C(C=C(C=C2)S(=O)(=O)NC(=O)C3=CC=C(C=C3)N4CCC(CC4)[C@H](C5=CC=CC=C5C6=CC=C(C=C6)Cl)O)S(=O)(=O)C(F)(F)F)CCO [AZD4320] (first compound max 10 µM, 7x7, partner max 1 µM) | – | – | – | 0.803 | 0.126 | – | 0.172 | 0.872 | – | 1 | – | 0.781 | – | 1 | – | 0.69 | – | – | -0.0999 | -0.067 |
| CN(CCO)CC[C@H](CSc1ccccc1)Nc1ccc(S(=O)(=O)NC(=O)c2ccc(N3CCC([C@@H](O)c4ccccc4-c4ccc(Cl)cc4)CC3)cc2)cc1S(=O)(=O)C(F)(F)F [AZD4320] + C[C@@H]1COCCN1C2=NC(=NC(=C2)C3(CC3)[S@](=N)(=O)C)C4=C5C=CNC5=NC=C4 [AZD6738] (first compound max 1 µM, 7x7, partner max 10 µM) | 0.726 | 0.979 | 0.577 | 0.546 | 0.681 | 0.364 | 0.928 | 0.886 | 0.828 | 1 | 0.383 | 0.944 | 0.796 | 1 | 0.543 | 0.63 | 0.603 | -0.0476 | -0.0807 | – |
| CC(=O)Nc1cccc(-n2c(=O)n(C3CC3)c(=O)c3c(Nc4ccc(I)cc4F)n(C)c(=O)c(C)c32)c1 [Trametinib] + Cc1nc(-c2cn3c(n2)-c2ccc(-c4cnn(C(C)(C)C(N)=O)c4)cc2OCC3)n(C(C)C)n1 [Taselisib] (first compound max 1 µM, 7x7, partner max 10 µM) | 0.666 | 0.63 | 0.47 | 0.469 | 0.447 | 0.586 | 0.956 | 1 | 0.98 | 0.751 | – | 0.865 | 1 | 0.976 | 0.338 | 0.76 | 0.728 | 0.0968 | -0.0198 | -0.0299 |
| C[C@@H](c1ccc2nccn2c1)n1nnc2ncc(-c3cnn(C)c3)nc21 [Savolitinib] + CN(CC[C@H](CSC1=CC=CC=C1)NC2=C(C=C(C=C2)S(=O)(=O)NC(=O)C3=CC=C(C=C3)N4CCC(CC4)[C@H](C5=CC=CC=C5C6=CC=C(C=C6)Cl)O)S(=O)(=O)C(F)(F)F)CCO [AZD4320] (first compound max 1 µM, 7x7, partner max 1 µM) | – | – | – | 0.182 | 0.0887 | – | 0.174 | 0.465 | – | 1 | – | 0.626 | – | 1 | – | 0.455 | – | – | -0.0618 | -0.0695 |
| CN(CCO)CC[C@H](CSc1ccccc1)Nc1ccc(S(=O)(=O)NC(=O)c2ccc(N3CCC([C@@H](O)c4ccccc4-c4ccc(Cl)cc4)CC3)cc2)cc1S(=O)(=O)C(F)(F)F [AZD4320] + Cc1cc2ncnn2cc1Nc1ncc2c(n1)n(C1CCOCC1)c(=O)n2C [AZD7648] (first compound max 1 µM, 7x7, partner max 10 µM) | 0.209 | – | 0.165 | 0.174 | 0.0433 | 0.271 | 0.21 | 0.61 | 0.111 | 1 | 0.32 | 0.821 | 0.18 | 1 | 0.0909 | 0.36 | 0.885 | -0.0652 | -0.0524 | 0.0109 |
| CN(CCO)CC[C@H](CSc1ccccc1)Nc1ccc(S(=O)(=O)NC(=O)c2ccc(N3CCC([C@@H](O)c4ccccc4-c4ccc(Cl)cc4)CC3)cc2)cc1S(=O)(=O)C(F)(F)F [AZD4320] + C[C@@H](Nc1cc(F)cc(F)c1)c1cc(C(=O)N(C)C)cc2c(=O)cc(N3CCOCC3)oc12 [AZD8186] (first compound max 1 µM, 7x7, partner max 3 µM) | 0.803 | 0.999 | 0.37 | 0.386 | 0.315 | 0.287 | 0.515 | 0.927 | 0.338 | 1 | 0.507 | – | 0.341 | 1 | 0.236 | 0.615 | 0.64 | -0.073 | -0.0197 | 0.0326 |
| CN(CCO)CC[C@H](CSc1ccccc1)Nc1ccc(S(=O)(=O)NC(=O)c2ccc(N3CCC([C@@H](O)c4ccccc4-c4ccc(Cl)cc4)CC3)cc2)cc1S(=O)(=O)C(F)(F)F [AZD4320] + C1CN(CCC1(C(=O)N[C@@H](CCO)C2=CC=C(C=C2)Cl)N)C3=NC=NC4=C3C=CN4 [Capivasertib] (first compound max 1 µM, 7x7, partner max 3 µM) | 0.408 | 0.989 | 0.404 | – | 0.0618 | 0.0979 | 0.221 | 0.743 | 0.135 | 1 | 0.418 | 0.914 | 0.186 | 1 | 0.0137 | 0.45 | 0.923 | -0.0338 | -0.0547 | -0.027 |
| C[C@@H]1COCCN1c1cc(C2([S@](C)(=N)=O)CC2)nc(-c2ccnc3[nH]ccc23)n1 [AZD6738] + O=C(c1cc(Cc2n[nH]c(=O)c3ccccc23)ccc1F)N1CCN(C(=O)C2CC2)CC1 [Olaparib] (first compound max 10 µM, 7x7, partner max 10 µM) | 0.419 | 0.556 | 0.374 | 0.298 | 0.595 | 0.528 | 0.71 | 0.768 | – | 0.509 | 0.332 | 0.677 | 0.738 | 0.595 | 0.475 | 0.391 | 0.388 | -0.0133 | -0.0085 | 0.0682 |
| COc1nnc2ccc(N3CCC(c4ccc(OCCN5CCN(C)C(=O)[C@H]5C)cc4)CC3)nn12 [AZD5153] + CN(CC[C@H](CSC1=CC=CC=C1)NC2=C(C=C(C=C2)S(=O)(=O)NC(=O)C3=CC=C(C=C3)N4CCC(CC4)[C@H](C5=CC=CC=C5C6=CC=C(C=C6)Cl)O)S(=O)(=O)C(F)(F)F)CCO [AZD4320] (first compound max 1 µM, 7x7, partner max 1 µM) | – | – | – | 0.628 | 0.419 | – | 0.401 | 0.9 | – | 1 | – | 0.918 | – | 1 | – | 0.723 | – | – | 0.0115 | 0.048 |
| C=CCn1c(=O)c2cnc(Nc3ccc(N4CCN(C)CC4)cc3)nc2n1-c1cccc(C(C)(C)O)n1 [AZD1775] + C1CN(CCC1(C(=O)N[C@@H](CCO)C2=CC=C(C=C2)Cl)N)C3=NC=NC4=C3C=CN4 [Capivasertib] (first compound max 3 µM, partner max 3 µM) | 0.264 | 0.856 | 0.647 | 0.449 | 0.731 | 0.857 | 0.839 | 0.866 | 0.85 | – | 0.471 | 0.704 | 0.813 | 0.79 | 0.854 | 0.49 | 0.685 | -0.102 | -0.085 | -0.0268 |
